The values that follow are results of earlier work, collected in patent US20110200632A1, “ADJUVANTING MATERIAL” (Lipotek Pty Ltd., priority 2005, published 2011).

This data set has as its system splenocytes and macrophages. The following applies: versus Pam3Cys.

Consider `CCCCCCCCCCCCCCCC(=O)OCC(CSC[C@H](N)C(=O)O)OC(=O)CCCCCCCCCCCCCCC` (stereo partly drawn) [Pam2Cys, S-[2,3-bis(palmitoyloxy)propyl]cysteine], for which the “stimulator of splenocytes and macrophages, compared with Pam3Cys” value is given as “more potent”.
